What was measured:
Assay type in all cases: cell-based
[1] = tested on: Caco-2 colon adenocarcinoma cell line; assay: Binding of 32P-labeled decapeptides to cell lines
Description: (§1) Assay of the binding of ^32P-labeled decapeptides to cell lines: Cell lines were grown in complete medium containing 10% bovine fetal serum (heat inactivated). In each well of a 96-well plate, 10,000 cells from various cell lines were grown overnight in complete medium. Ten μl of the labeled-peptide in 1×PBS and 90 μl of complete medium were added to each well and incubated at 37° C. at various times of up to two hours. The peptide-medium was removed and one μl added to 100 ul gel loading buffer and counted by scintillation counting for the probe control or run on a polyacrylamide-SDS gel (Biorad). The adherent cells were briefly and gently washed with complete medium three times and some wells were assayed immediately by adding 100 μl of gel loading buffer to each well and run on a gel or counted in a scintillation counter. Other wells had 100 μl complete medium added and incubated for a further time period. Samples were either counted in a liquid scintillation counter or run on polyacrylamide-SDS gels, exposed to x-ray film, and the film developed.

[2] = tested on: HT1080 fibrosarcoma cells; assay: Binding of 32P-labeled decapeptides to cell lines; conditions: two-hour incubation, washes
Description: as §1

[3] = tested on: HCT116 colon adenocarcinoma cells; assay: Binding of 32P-labeled decapeptides to cell lines; conditions: two-hour incubation, washes; average
Description: as §1

[4] = tested on: eleven nonbinding cell lines; assay: Binding of 32P-labeled decapeptides to cell lines
Description: as §1

[5] = tested on: HeLa S3 cervical cancer cells; assay: Binding of 32P-labeled decapeptides to cell lines; conditions: two-hour incubation, washes; average
Description: as §1

[6] = tested on: human embryonic kidney cell line 293H; assay: Binding of 32P-labeled decapeptides to cell lines; conditions: two-hour incubation, washes
Description: as §1

[7] = tested on: colon adenocarcinoma cell lines (Caco-2, HCT15, HCT116, LoVo, HT29); assay: Binding and overnight release/retention of 32P-labeled decapeptide; conditions: two-hour incubation
Description: as §1

[8] = two hours incubation, three wash steps, overnight incubation in medium

Sequence: GSRRASVASA (synthetic or recombinant sequence) [MA5]
- retained counts per hour per cell ([1]; after overnight incubation): 348 counts per hour, per cell
- retained counts extrapolated per cell per day ([1]; after overnight incubation, extrapolated): over 8,300 counts per cell per day
- percentage of the total radioactive counts present in the incubation well retained by cells ([1]; after two-hour incubation): approximately 18%
- time to plateau of 32P-peptide release into medium ([1]; after washing): ≤ 24 h
- retained counts per cell extrapolated over a potential 2-week exposure period ([1]; extrapolated over 2 weeks): over 87,000 counts per cell
- time by which the majority of total released counts are released ([1]; release after washing over a 48-hour time period): released by nine hours of incubation
- cpm retained by cells after overnight incubation ([1]; triplicate wells containing 10,000 cells each, three washes, overnight at 37 C): 58,305 cpm
- relative binding among decapeptides (in words) ([1]; two hour incubation): most efficient binding decapeptide
- radioactive dose transferred per cell ([1]; two hour incubation, wash, immediate determination of retained radioactivity): over 29 counts per minute per cell
- originally retained 32P isotope released [1, 8]: 88%
- originally retained 32P isotope retained by cells [1, 8]: 12%
- retention difference between decapeptide variants ([1]; two hours' incubation, variant MA2 vs. variant MA5): 70 fold
- 32P counts per minute (cpm) remaining bound ([1]; two-hour incubation, washes with complete medium, average of triplicate wells): 298,639 cpm per 10,000 cells
- 32P counts per minute (cpm) remaining bound [2]: 367 cpm
- 32P counts per minute (cpm) remaining bound [3]: 131,998 cpm per 10,000 cells
- average cpm of the eleven nonbinding cell lines ([4]; two-hour incubation, 10,000 cells, washed three times): 365 cpm
- mean cpm values of blank wells and nonbinding cell lines ([4]; two-hour incubation, washes): less than 550 cpm
- 32P counts per minute (cpm) remaining bound [5]: 534 cpm per 10,000
- 32P counts per minute (cpm) remaining bound [6]: 429 cpm per 10,000 cells
- retention of radioactivity (in words) ([7]; five of sixteen cell lines): very strong retention of radioactivity
- initially retained radioactive counts retained by cells ([7]; washes, overnight incubation): approximately 12%

Source: patent US20130209359A1, “Small Peptides Specifically Bind to Colorectal Cancers” (The Johns Hopkins University, priority 2007, published 2013)
